Reference: PubChem BioAssay (NCI)
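Growth conditions: 96-well plates. Treatment: test compound, 48 hours, 5 concentrations. Analysis: linear interpolation between bracketing concentrations; unreached endpoints set to highest concentration. The concentration for 50% growth inhibition is given as GI50. The concentration for full growth arrest is given as TGI.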

How the values were obtained:
Assay in all cases: DTP human tumour cell line panel, 48 h
[1] = system: 786-0 renal
[2] = system: A498 renal
[3] = system: A549 NSCLC
[4] = system: ACHN renal
[5] = system: CAKI-1 renal
[6] = system: CCRF-CEM leukemia
[7] = system: COLO 205 colon
[8] = system: DU-145 prostate
[9] = system: EKVX NSCLC
[10] = system: HCC-2998 colon
[11] = system: HCT-116 colon
[12] = system: HCT-15 colon
[13] = system: HL-60(TB) leukemia
[14] = system: HOP-62 NSCLC
[15] = system: HOP-92 NSCLC
[16] = system: HS 578T breast
[17] = system: HT29 colon
[18] = system: IGROV1 ovarian
[19] = system: K-562 leukemia
[20] = system: KM12 colon
[21] = system: LOX IMVI melanoma
[22] = system: M14 melanoma
[23] = system: MALME-3M melanoma
[24] = system: MCF7 breast
[25] = system: MDA-MB-231 breast
[26] = system: MDA-MB-435
[27] = system: MDA-MB-468 breast
[28] = system: MOLT-4 leukemia
[29] = system: NCI-H226 lung
[30] = system: NCI-H23 lung
[31] = system: NCI-H460 lung
[32] = system: NCI-H522 lung
[33] = system: NCI/ADR-RES ovarian
[34] = system: OVCAR-3 ovarian
[35] = system: OVCAR-4 ovarian
[36] = system: OVCAR-5 ovarian
[37] = system: OVCAR-8 ovarian
[38] = system: PC-3 prostate
[39] = system: RPMI-8226 leukemia
[40] = system: RXF 393 renal
[41] = system: SF-268 CNS
[42] = system: SF-295 CNS
[43] = system: SF-539 CNS
[44] = system: SK-MEL-2 melanoma
[45] = system: SK-MEL-28 melanoma
[46] = system: SK-MEL-5 melanoma
[47] = system: SK-OV-3 ovarian
[48] = system: SN12C renal
[49] = system: SNB-19 CNS
[50] = system: SNB-75 CNS
[51] = system: SR leukemia
[52] = system: SW-620 colon
[53] = system: T-47D breast
[54] = system: TK-10 renal
[55] = system: U251 CNS
[56] = system: UACC-257 melanoma
[57] = system: UACC-62 melanoma
[58] = system: UO-31 renal

COc1ccc2[nH]cc(-c3cc(N)n4nc(-c5cn(C)c6ccccc56)cc4n3)c2c1 was tested, and the GI50 [1] was 1.59 µM, the TGI [1] was 3.12 µM and the GI50 [2] was 1.73 µM. It also gave a TGI [2] of 3.23 µM, a GI50 [3] of 1.54 µM and a TGI [3] of 2.9 µM. The GI50 [4] was 1.87 µM, the TGI [4] was 3.43 µM and the GI50 [5] was 1.73 µM. For the same molecule, the TGI [5] was 3.12 µM, the GI50 [6] was 1.86 µM and the TGI [6] was 6.44 µM. The GI50 [7] was 1.79 µM, the TGI [7] was 3.41 µM and the GI50 [8] was 1.82 µM. For the same molecule, the TGI [8] was 3.52 µM, the GI50 [9] was 1.8 µM and the TGI [9] was 3.89 µM. For the same molecule, the GI50 [10] was 1.94 µM, the TGI [10] was 3.38 µM and the GI50 [11] was 1.54 µM. It also gave a TGI [11] of 3.69 µM, a GI50 [12] of 1.23 µM and a TGI [12] of 2.52 µM. It also gave a GI50 [13] of 1.39 µM, a TGI [13] of 3.58 µM and a GI50 [14] of 1.89 µM. For the same molecule, the TGI [14] was 3.76 µM, the GI50 [15] was 1.68 µM and the TGI [15] was 3.24 µM. It also gave a GI50 [16] of 2.05 µM, a TGI [16] of 4.83 µM and a GI50 [17] of 1.8 µM. It also gave a TGI [17] of 3.22 µM, a GI50 [18] of 1.62 µM and a TGI [18] of 3.05 µM. For the same molecule, the GI50 [19] was 0.614 µM, the TGI [19] was 6.66 µM and the GI50 [20] was 2.03 µM. For the same molecule, the TGI [20] was 4.22 µM, the GI50 [21] was 1.76 µM and the TGI [21] was 3.28 µM. The GI50 [22] was 1.79 µM, the TGI [22] was 3.93 µM and the GI50 [23] was 1.74 µM. For the same molecule, the TGI [23] was 3.14 µM, the GI50 [24] was 1.46 µM and the TGI [24] was 3.25 µM. For the same molecule, the GI50 [25] was 1.51 µM, the TGI [25] was 2.84 µM and the GI50 [26] was 1.77 µM. It also gave a TGI [26] of 3.23 µM, a GI50 [27] of 1.57 µM and a TGI [27] of 3.06 µM. It also gave a GI50 [28] of 1.59 µM, a TGI [28] of 4.38 µM and a GI50 [29] of 1.87 µM. It also gave a TGI [29] of 4.74 µM, a GI50 [30] of 1.97 µM and a TGI [30] of 3.95 µM. The GI50 [31] was 1.9 µM, the TGI [31] was 3.62 µM and the GI50 [32] was 1.52 µM. The TGI [32] was 2.99 µM, the GI50 [33] was 1.89 µM and the TGI [33] was 3.82 µM. It also gave a GI50 [34] of 1.8 µM, a TGI [34] of 3.34 µM and a GI50 [35] of 1.7 µM. The TGI [35] was 3.19 µM, the GI50 [36] was 1.73 µM and the TGI [36] was 3.27 µM. For the same molecule, the GI50 [37] was 1.75 µM, the TGI [37] was 3.27 µM and the GI50 [38] was 1.67 µM. It also gave a TGI [38] of 3.52 µM, a GI50 [39] of 1.94 µM and a TGI [39] of 5 µM. The GI50 [40] was 1.74 µM, the TGI [40] was 3.39 µM and the GI50 [41] was 1.94 µM. It also gave a TGI [41] of 4.05 µM, a GI50 [42] of 1.78 µM and a TGI [42] of 3.34 µM. For the same molecule, the GI50 [43] was 1.61 µM, the TGI [43] was 3.01 µM and the GI50 [44] was 1.67 µM. The TGI [44] was 3.13 µM, the GI50 [45] was 1.78 µM and the TGI [45] was 3.23 µM. For the same molecule, the GI50 [46] was 1.76 µM, the TGI [46] was 3.14 µM and the GI50 [47] was 1.81 µM. It also gave a TGI [47] of 3.36 µM, a GI50 [48] of 1.53 µM and a TGI [48] of 2.86 µM. The GI50 [49] was 1.66 µM, the TGI [49] was 3.11 µM and the GI50 [50] was 1.4 µM. The TGI [50] was 2.81 µM, the GI50 [51] was 0.343 µM and the TGI [51] was 1.73 µM. The GI50 [52] was 1.81 µM, the TGI [52] was 3.47 µM and the GI50 [53] was 2.01 µM. For the same molecule, the TGI [53] was 4.43 µM, the GI50 [54] was 1.89 µM and the TGI [54] was 3.37 µM. For the same molecule, the GI50 [55] was 1.69 µM, the TGI [55] was 3.15 µM and the GI50 [56] was 1.68 µM. It also gave a TGI [56] of 3.1 µM, a GI50 [57] of 1.62 µM and a TGI [57] of 2.99 µM. For the same molecule, the GI50 [58] was 1.46 µM and the TGI [58] was 2.78 µM.
